Laboratory results: the supplement of paper PMC10307832

What was measured:
Test in all cases: relative viability (nuclei count vs DMSO), 5 days (fraction); higher = more cells survive
QS11 + Olaparib = compound: C1CC2=C(C1)C=C(C=C2)OC3=NC(=C4C(=N3)N(C=N4)CC5=CC=C(C=C5)C6=CC=CC=C6)N[C@@H](CC7=CC=CC=C7)CO [QS11] + O=C(c1cc(Cc2n[nH]c(=O)c3ccccc23)ccc1F)N1CCN(C(=O)C2CC2)CC1 [Olaparib] (partner 8 µM)
In short: (§1)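 Cells from lung cancer lines were seeded into 1536-well plates and, one day later, dosed by pin tool. Treatments were either a single drug or a fixed dose of an anchor drug with five library-drug doses (not always all listed) in √10 steps. After 5 days, nuclei were stained in a one-step fixation (final 0.05% Triton X-100, 1% formaldehyde, 1 ug/ml Hoechst) and counted on 4× images, and relative viability is the treated-to-vehicle nuclei ratio, as the median of duplicate plates.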

AZ628 + Phenformin = compound: CC1=C(C=C(C=C1)NC(=O)C2=CC(=CC=C2)C(C)(C)C#N)NC3=CC4=C(C=C3)N=CN(C4=O)C [AZ628] + N=C(N)NC(=N)NCCc1ccccc1 [Phenformin] (partner 250 µM)
In short: as §1

AZ628 + Pemetrexed = compound: CC1=C(C=C(C=C1)NC(=O)C2=CC(=CC=C2)C(C)(C)C#N)NC3=CC4=C(C=C3)N=CN(C4=O)C [AZ628] + Nc1nc2[nH]cc(CCc3ccc(C(=O)N[C@@H](CCC(=O)O)C(=O)O)cc3)c2c(=O)[nH]1 [Pemetrexed] (partner 0.2 µM)
In short: as §1

AZ628 + Olaparib = compound: CC1=C(C=C(C=C1)NC(=O)C2=CC(=CC=C2)C(C)(C)C#N)NC3=CC4=C(C=C3)N=CN(C4=O)C [AZ628] + O=C(c1cc(Cc2n[nH]c(=O)c3ccccc23)ccc1F)N1CCN(C(=O)C2CC2)CC1 [Olaparib] (partner 8 µM)
In short: as §1

Cell Line | relative viability (QS11 + Olaparib; first compound 0.08 µM) | relative viability (QS11 + Olaparib; first compound 0.253 µM) | relative viability (QS11 + Olaparib; first compound 2.53 µM) | relative viability (QS11 + Olaparib; first compound 8 µM) | relative viability (AZ628 + Phenformin; first compound 0.08 µM) | relative viability (AZ628 + Phenformin; first compound 0.253 µM) | relative viability (AZ628 + Phenformin; first compound 0.8 µM) | relative viability (AZ628 + Phenformin; first compound 2.53 µM) | relative viability (AZ628 + Phenformin; first compound 8 µM) | relative viability (AZ628 + Pemetrexed; first compound 0.08 µM) | relative viability (AZ628 + Pemetrexed; first compound 0.253 µM) | relative viability (AZ628 + Pemetrexed; first compound 0.8 µM) | relative viability (AZ628 + Pemetrexed; first compound 2.53 µM) | relative viability (AZ628 + Pemetrexed; first compound 8 µM) | relative viability (AZ628 + Olaparib; first compound 0.08 µM) | relative viability (AZ628 + Olaparib; first compound 0.253 µM) | relative viability (AZ628 + Olaparib; first compound 0.8 µM) | relative viability (AZ628 + Olaparib; first compound 2.53 µM) | relative viability (AZ628 + Olaparib; first compound 8 µM) | relative viability (QS11 + Olaparib; first compound 0.8 µM)
NCI-H3122 | 0.636 | 0.694 | 0.601 | 0.637 | 0.366 | 0.288 | 0.305 | 0.31 | 0.289 | 0.185 | 0.166 | 0.161 | 0.159 | 0.151 | 0.652 | 0.634 | 0.561 | 0.565 | 0.379 | –
PC-3 [JPC-3] | – | 1.17 | 1.24 | 1.22 | 0.441 | 0.477 | 0.485 | 0.464 | 0.383 | 1.29 | 0.984 | 1.22 | 1.16 | 0.925 | 1.1 | 1.16 | 1.22 | 1.23 | 1.1 | 1.15
PC-14 | 0.253 | 0.339 | 0.272 | 0.38 | 0.638 | 0.438 | 0.498 | 0.599 | 0.416 | 0.136 | 0.121 | 0.105 | 0.105 | 0.0944 | 0.376 | 0.258 | 0.243 | 0.259 | 0.16 | 0.249
RERF-LC-KJ | 0.988 | 0.975 | 0.822 | 0.593 | 0.432 | 0.424 | 0.392 | 0.401 | 0.31 | 0.475 | 0.474 | 0.464 | 0.508 | 0.467 | 0.807 | 0.925 | 1.01 | 1.01 | 0.865 | 0.885
SK-LU-1 | 0.354 | 0.442 | 0.356 | 0.452 | – | 0.433 | 0.488 | 0.348 | 0.253 | 0.603 | 0.973 | 0.885 | 1.01 | 0.66 | 0.376 | 0.37 | 0.44 | 0.379 | 0.315 | 0.466
SK-MES-1 | 0.672 | 0.677 | 0.75 | 0.804 | 0.715 | 0.661 | 0.619 | 0.675 | 0.466 | 0.867 | 0.915 | 0.844 | 0.91 | 0.59 | 0.693 | 0.824 | 0.9 | 0.737 | 0.392 | 0.717
SW 900 | 0.941 | 1.03 | 0.739 | 0.511 | 0.536 | 0.691 | 0.561 | 0.422 | 0.399 | 0.495 | 0.489 | 0.471 | 0.461 | 0.451 | 1.04 | 0.878 | 1.02 | 0.951 | 0.683 | 0.615
SW 1573 | 0.615 | 0.489 | 0.416 | 0.463 | 0.322 | 0.308 | 0.215 | 0.288 | 0.2 | 0.806 | 0.79 | 0.675 | 0.765 | 0.461 | 0.462 | 0.423 | 0.365 | 0.374 | 0.346 | 0.503
UMC-11 | 0.324 | 0.41 | 0.329 | 0.395 | 0.322 | 0.268 | 0.339 | 0.294 | 0.255 | 0.818 | 0.799 | 0.79 | 0.763 | 0.814 | 0.393 | 0.357 | 0.291 | 0.344 | 0.331 | 0.268
